Test results: patent US9315490B2, “2,5-substituted pyrimidines” (Grünenthal GmbH, priority 2014, dated 2016)

How the values were obtained:
human PDE4B1 [1] = target: T1, human PDE4B1 (Homo sapiens, UniProt Q07343); assay: TR-FRET assay using the LANCE Ultra cAMP kit to determine the activity of hPDE4B1; type: biochemical; details: read-out: Inhibition in % (inhibition of PDE4B); for inhibition at 10 µM: test concentration 10 μM (marked in cell); for inhibition at 1 µM: test concentration 1 μM
T1 construct: host or cells: Sf9 cells
T1 sequence (Q07343 whole entry): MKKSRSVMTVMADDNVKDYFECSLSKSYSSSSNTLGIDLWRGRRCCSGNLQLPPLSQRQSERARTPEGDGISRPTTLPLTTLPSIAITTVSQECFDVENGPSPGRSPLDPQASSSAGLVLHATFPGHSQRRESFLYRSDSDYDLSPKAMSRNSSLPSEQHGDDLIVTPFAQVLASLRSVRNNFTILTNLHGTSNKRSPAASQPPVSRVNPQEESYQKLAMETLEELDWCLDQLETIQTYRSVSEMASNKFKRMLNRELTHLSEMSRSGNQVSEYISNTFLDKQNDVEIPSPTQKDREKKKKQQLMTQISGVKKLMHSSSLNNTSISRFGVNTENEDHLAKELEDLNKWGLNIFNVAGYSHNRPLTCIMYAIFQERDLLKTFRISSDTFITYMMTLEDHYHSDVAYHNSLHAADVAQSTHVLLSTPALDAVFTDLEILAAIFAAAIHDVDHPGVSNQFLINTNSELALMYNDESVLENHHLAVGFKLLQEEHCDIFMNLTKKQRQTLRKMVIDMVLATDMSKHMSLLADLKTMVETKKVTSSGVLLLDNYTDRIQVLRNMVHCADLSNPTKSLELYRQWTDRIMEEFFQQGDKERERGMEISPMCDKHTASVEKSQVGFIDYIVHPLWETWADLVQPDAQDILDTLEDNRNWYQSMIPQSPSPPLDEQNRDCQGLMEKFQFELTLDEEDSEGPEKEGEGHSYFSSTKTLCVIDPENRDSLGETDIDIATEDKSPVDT
Source text: TR-FRET Assay Using the LANCE® Ultra cAMP Kit to Determine the Activity of hPDE4B1
The effects of the compounds on the activity of the human PDE4B1 was quantified by measuring the production of 5′AMP from cAMP using a human recombinant enzyme expressed in Sf9 cells and the LANCE® Ultra cAMP kit, a TR-FRET detection method from PerkinElmer. The human PDE4B1 enzyme was purchased from SignalChem Lifesciences (Catalog# P92-31BG, Lot# H296-2).
The test compound, reference compound or water (control) was mixed with the enzyme (0.96 U) in a reaction buffer containing 50 mM Tris-HCl, 50 mM MgCl2 and 5 mM DTT (pH 8.5). Thereafter, the reaction was initiated by addition of 500 nM cAMP (substrate) and the mixture was incubated for 30 minutes at room temperature. For control basal measurements, the enzyme was omitted from the reaction mixture. After 30 minutes, the reaction was stopped and diluted by a factor of 100 with the reaction buffer supplemented with 500 μM IBMX. The fluorescence donor (europium chelate-labeled cAMP) and the fluorescence acceptor (anti-cAMP antibody labeled with the ULight™ dye) were then added together with 500 μM IBMX to a 10 μl aliquot. After 60 minutes, the fluorescence transfer corresponding to the amount of residual cAMP was measured at λex=337 nm, λem=620 nm and λem=665 nm using a microplate reader (PHERAstar, BMG). The enzyme activity was determined by dividing the signal measured at 665 nm by that measured at 620 nm (ratio) multiplied by 10000. The results were expressed as percent inhibition of the control enzyme activity. IC50 values (IC50=concentration causing a half-maximal inhibition of control specific activity) were derived from dose response measurements with ten different concentrations (n=3; N=1-3).

human PDE4B1 [2] = target: T1, human PDE4B1; assay: cAMP HTRF assay to determine the activity of hPDE4B1; type: biochemical; details: inhibition of PDE4B at a test concentration of 1 μM
Method in brief: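 Human recombinant PDE4B1 from Sf9 cells (4.8 U) in Tris-HCl, MgCl2, DTT, Tween 20 buffer at pH 7.8 with 40 nM cAMP (final), 30 min at room temperature. Reaction stopped with 1 mM IBMX; remaining cAMP detected by HTRF (665/620 nm ratio). IC50 from eight-concentration curves.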

inhibition at 1 µM (human PDE4B1 [2])	Structure (SMILES)	other results
	Cc1ccc(F)c(-c2cnc(-n3cc([S+](C)[O-])c4ccc(C(=O)N(C)CCO)cc43)nc2)c1 (centres unmarked) [Example 315, 1-(5-(2-Fluoro-5-methylphenyl)pyrimidin-2-yl)-N-(2-hydroxyethyl)-N-methyl-3-(methylsulfinyl)-1H-indole-6-carboxamide]	inhibition at 10 µM (human PDE4B1 [1]): 97%
	Cc1ccc(F)c(-c2cnc(-n3cc(C(C)O)c4ccc(C(=O)N(C)CC(N)=O)cc43)nc2)c1 (centres unmarked) [Example 323, N-(2-Amino-2-oxoethyl)-1-(5-(2-fluoro-5-methylphenyl)pyrimidin-2-yl)-3-(1-hydroxyethyl)-N-methyl-1H-indole-6-carboxamide]	inhibition at 10 µM (human PDE4B1 [1]): 103%
	Cc1ccnc(-c2cnc(-n3cc([S+](C)[O-])c4ccc(C(=O)N5CCCC5)cc43)nc2)c1 (centres unmarked) [Example 269, (1-(5-(4-Methylpyridin-2-yl)pyrimidin-2-yl)-3-(methylsulfinyl)-1H-indol-6-yl)(pyrrolidin-1-yl)methanone]	inhibition at 1 µM (human PDE4B1 [1]): 97%
	CN(C)C(=O)c1ccc2c([S+](C)[O-])cn(-c3ncc(-c4cc(N(C)C)ccn4)cn3)c2c1 (centres unmarked) [Example 272, 1-(5-(4-(Dimethylamino)pyridin-2-yl)pyrimidin-2-yl)-N,N-dimethyl-3-(methylsulfinyl)-1H-indole-6-carboxamide]	inhibition at 1 µM (human PDE4B1 [1]): 93%
	Cc1ccc(F)c(-c2cnc(-n3cc(C(C)O)c4ccc(C(=O)N(C)C)cc43)nc2)c1 (centres unmarked) [Example 322, 1-(5-(2-Fluoro-5-methylphenyl)pyrimidin-2-yl)-3-(1-hydroxyethyl)-N,N-dimethyl-1H-indole-6-carboxamide]	inhibition at 10 µM (human PDE4B1 [1]): 100%
	CC#Cc1ccnc(-c2cnc(-n3cc([S+](C)[O-])c4ccc(C(=O)N5CCOCC5)cc43)nc2)c1 (centres unmarked) [Example 257, (3-(Methylsulfinyl)-1-(5-(4-(prop-1-yn-1-yl)pyridin-2-yl)pyrimidin-2-yl)-1H-indol-6-yl)(morpholino)methanone]	inhibition at 1 µM (human PDE4B1 [1]): 93%
	CCOc1ccnc(-c2cnc(-n3cc([S+](C)[O-])c4ccc(C(=O)N5CCOCC5)cc43)nc2)c1 (centres unmarked) [Example 260, (1-(5-(4-Ethoxypyridin-2-yl)pyrimidin-2-yl)-3-(methylsulfinyl)-1H-indol-6-yl)(morpholino)methanone]	inhibition at 1 µM (human PDE4B1 [1]): 95%
0%	CN(C)C(=O)CN1CCN(C(=O)c2ccc3c([S+](C)[O-])cn(-c4ncc(-c5ccccc5F)cn4)c3c2)CC1 (centres unmarked) [Example 395, 2-(4-(1-(5-(2-Fluorophenyl)pyrimidin-2-yl)-3-(methylsulfinyl)-1H-indole-6-carbonyl)piperazin-1-yl)-N,N-dimethylacetamide]	
40%	CC1CC(C)CN(C(=O)c2ccc3c([S+](C)[O-])cn(-c4ncc(-c5ccccc5F)cn4)c3c2)C1 (single isomer, unassigned) [Example 372, (3,5-Dimethylpiperidin-1-yl)(1-(5-(2-fluorophenyl)pyrimidin-2-yl)-3-(methylsulfinyl)-1H-indol-6-yl)methanone]	
90%	CN(C(=O)c1ccc2c([S+](C)[O-])cn(-c3ncc(-c4ccccc4F)cn3)c2c1)C1CCNC1 (centres unmarked) [Example 58, 1-(5-(2-Fluorophenyl)pyrimidin-2-yl)-N-methyl-3-(methylsulfinyl)-N-(pyrrolidin-3-yl)-1H-indole-6-carboxamide]	
102%	Cc1cccc(-c2cnc(-n3cc([S+](C)[O-])c4ccc(C(=O)N5CC[C@@H](N)C5)cc43)nc2)c1 (stereo partly drawn) [Example 224, ((R)-3-Aminopyrrolidin-1-yl)(3-(methylsulfinyl)-1-(5-(m-tolyl)pyrimidin-2-yl)-1H-indol-6-yl)methanone]	
40%	CC1CCCCN1C(=O)c1ccc2c([S+](C)[O-])cn(-c3ncc(-c4ccccc4F)cn3)c2c1 (centres unmarked) [Example 361, (1-(5-(2-Fluorophenyl)pyrimidin-2-yl)-3-(methylsulfinyl)-1H-indol-6-yl)(2-methylpiperidin-1-yl)methanone]	
32%	CS(=O)(=O)c1cn(-c2ncc(-c3ccccc3)cn2)c2cc(C(=O)N3CCNCC3)ccc12 [Example 21, (3-(Methylsulfonyl)-1-(5-phenylpyrimidin-2-yl)-1H-indol-6-yl)(piperazin-1-yl)methanone]	
77%	C[S+]([O-])c1cn(-c2ncc(-c3ccccc3F)cn2)c2cc(C(=O)N3CCC3)ccc12 (centres unmarked) [Example 355, Azetidin-1-yl(1-(5-(2-fluorophenyl)pyrimidin-2-yl)-3-(methylsulfinyl)-1H-indol-6-yl)methanone]	
101%	C[S+]([O-])c1cn(-c2ncc(-c3ccccc3F)cn2)c2cc(C(=O)N3C[C@@H]4C[C@H]3CN4)ccc12 (stereo partly drawn) [Example 240, (1S,4S)-2,5-Diazabicyclo[2.2.1]heptan-2-yl(1-(5-(2-fluorophenyl)pyrimidin-2-yl)-3-(methylsulfinyl)-1H-indol-6-yl)methanone]	
85%	CS(=O)(=O)c1cn(-c2ncc(-c3ccccc3)cn2)c2cc(C(=O)N3C[C@@H]4C[C@H]3CN4)ccc12 [Example 236, (1S,4S)-2,5-Diazabicyclo[2.2.1]heptan-2-yl(3-(methylsulfonyl)-1-(5-phenylpyrimidin-2-yl)-1H-indol-6-yl)methanone]	
84%	C[S+]([O-])c1cn(-c2ncc(-c3ccccc3)cn2)c2cc(C(=O)N3CCNC(=O)C3)ccc12 (centres unmarked) [Example 70, 4-(3-(Methylsulfinyl)-1-(5-phenylpyrimidin-2-yl)-1H-indole-6-carbonyl)piperazin-2-one]	
6%	C[S+]([O-])c1cn(-c2ncc(-c3ccccc3F)cn2)c2cc(C(=O)N3CCS(=O)(=O)CC3)ccc12 (centres unmarked) [Example 390, (1,1-Dioxidothiomorpholino)(1-(5-(2-fluorophenyl)pyrimidin-2-yl)-3-(methylsulfinyl)-1H-indol-6-yl)methanone]	
3%	C[S+]([O-])c1cn(-c2ncc(-c3ccccc3F)cn2)c2cc(C(=O)N3CCC4(CC3)COC4)ccc12 (centres unmarked) [Example 384, (1-(5-(2-Fluorophenyl)pyrimidin-2-yl)-3-(methylsulfinyl)-1H-indol-6-yl)(2-oxa-7-azaspiro[3.5]nonan-7-yl)methanone]	
78%	CS(=O)(=O)c1cn(-c2ncc(-c3ccccc3F)cn2)c2cc(C(=O)N3C[C@@H]4C[C@H]3CN4)ccc12 [Example 239, (1S,4S)-2,5-Diazabicyclo[2.2.1]heptan-2-yl(1-(5-(2-fluorophenyl)pyrimidin-2-yl)-3-(methylsulfonyl)-1H-indol-6-yl)methanone]	
9%	C[S+]([O-])c1cn(-c2ncc(-c3ccccc3F)cn2)c2cc(C(=O)N3CCC(CO)CC3)ccc12 (centres unmarked) [Example 380, (1-(5-(2-Fluorophenyl)pyrimidin-2-yl)-3-(methylsulfinyl)-1H-indol-6-yl)(4-(hydroxymethyl)piperidin-1-yl)methanone]	
38%	CN(CC(C)(C)O)C(=O)c1ccc2c([S+](C)[O-])cn(-c3ncc(-c4ccccc4F)cn3)c2c1 (centres unmarked) [Example 171, 1-(5-(2-Fluorophenyl)pyrimidin-2-yl)-N-(2-hydroxy-2-methylpropyl)-N-methyl-3-(methylsulfinyl)-1H-indole-6-carboxamide]	
86%	C[S+]([O-])c1cn(-c2ncc(-c3ccccc3F)cn2)c2cc(C(=O)N3CCNC(=O)C3)ccc12 (centres unmarked) [Example 56, 4-(1-(5-(2-Fluorophenyl)pyrimidin-2-yl)-3-(methylsulfinyl)-1H-indole-6-carbonyl)piperazin-2-one]	
30%	CN(CC1(O)CC1)C(=O)c1ccc2c([S+](C)[O-])cn(-c3ncc(-c4ccccc4F)cn3)c2c1 (centres unmarked) [Example 250, 1-(5-(2-Fluorophenyl)pyrimidin-2-yl)-N-((1-hydroxycyclopropyl)methyl)-N-methyl-3-(methylsulfinyl)-1H-indole-6-carboxamide]	
58%	Cc1cccc(-c2cnc(-n3cc(S(C)(=O)=O)c4ccc(C(=O)N5CCOCC5)cc43)nc2)c1 [Example 156, (3-(Methylsulfonyl)-1-(5-(m-tolyl)pyrimidin-2-yl)-1H-indol-6-yl)(morpholino) methanone]	
106%	COc1ccc(F)c(-c2cnc(-n3cc([S+](C)[O-])c4ccc(C(=O)N5CCNC(=O)C5)cc43)nc2)c1 (single isomer, unassigned) [Example 213, 4-(1-(5-(2-Fluoro-5-methoxyphenyl)pyrimidin-2-yl)-3-(methylsulfinyl)-1H-indole-6-carbonyl)piperazin-2-one]	
